Measurements published in US20220362276A1, “Small Molecule Inhibitors of Viral Replication” (The Trustees of Princeton University, priority 2019, published 2022).
Entries after “also recorded” stand apart in the source; their conditions may differ.

Experiments:
[1] = system: translation of T7-tagBFP-Gluc; test: Translation inhibition assay (T7-tagBFP-Gluc RNA in Huh7 cells); type: cell-based; conditions: 4 days
Source text: Generation of T7-tagBFP-Gluc. To make the T7-TagBFP-GLuc construct, SP6-TagBFP-2A-FLuc was used as a template and the primers PU-O-6099 and PU-O-6100 were designed to partially anneal immediately upstream and downstream of the SP6 promoter. The unbound portions of PU-O-6099 and PU-O-6100 contained the T7 promoter sequence. […] Next, PCR amplification of the T7-TagBFP-2A backbone was completed using the Q5® High-Fidelity DNA Polymerase and PU-O-6101 and PU-O-6102 as the primers. […] The Gluc insert was then ligated to the T7-TagBFP-2A backbone using the In-Fusion® HD Cloning Kit.
Translation Inhibition Assay. Huh7 cells were seeded at 6,250 cells per well in 96-well format. The cells were then transfected with 50 ng T7-TagBFP-Gluc in vitro transcribed RNA per well. Five hours post-transfection, transfection medium was changed to medium containing isocotoin, ribavirin, cycloheximide, or roclagamide at 6 or 7 different concentrations. DMSO concentration was kept constant in all the wells at 0.125%. For each drug dose, triplicate wells were tested. On day four post-transfection, a luciferase assay was performed on supernatant media to measure Gluc expression.

full-length KernowC1p6 = test: RT-qPCR of HEV RNA, full-length KernowC1p6 in Huh7 cells; type: cell-based, hepatitis E virus; conditions: 6.25-25 μM isocotoin, day 6
Method: Quantification of HEV RNA by RT-qPCR Assay. Huh7 cells were seeded 42,000 cells/well in 24-well plates. One day post-seeding, the cells were transfected with 10 ng/well KernowC1p6 or KernowC1p6-GAD in vitro transcribed RNA. The next day, the medium on the cells transfected with KernowC1p6 was changed to 0.1% DMSO medium containing 25 μM, 12.5 μM, 6.25 μM, or 0 μM isocotoin. The negative control cells transfected with KernowC1p6-GAD were maintained in medium with 0.1% DMSO. The media on the cells was changed every 2 days to fresh drug-containing or DMSO-containing media. On day 6, cells were harvested and lysed in RLT buffer using 350 μL per well. Cell lysates were homogenized by pipetting 6-7 times with a needle syringe. Total RNA was extracted using BioBasic RNA MiniPreps SuperKit (Amherst, N.Y.). RT-qPCR was performed on the samples using qScript XLT 1-Step RT-qPCR ToughMix (Quanta Bio) according to the manufacturer's instructions. In vitro transcribed KernowC1p6 RNA of known concentration was serially diluted 1:10 and included as controls to generate a standard curve to calculate absolute RNA copies/μL in the samples.

Jc1(p7nsGluc2A) (HCV) = type: cell-based, hepatitis C virus; conditions: Gluc, RLU normalized to untreated
HEV = test: In vivo testing in HEV-infected human liver chimeric mice, viral RNA in stool and serum; conditions: 50 mg/kg daily intraperitoneally, 7 days
[2] = system: p6/Gluc (HEVΔORF2/3[Gluc]) replicon, KernowC1p6 genotype 3; test: Dose titration against p6/Gluc replicon in Huh7 cells, Gaussia luciferase readout; type: cell-based, hepatitis E virus
Method: Gaussia luciferase assays.
Statistics—calculation of IC50. Half maximal inhibitory concentrations were calculated by graphing dose-titration data as nonlinear curve fits with three parameters using GraphPad Prism (v8.1.2).

HSP90AA1 (Hsp90α1) = HSP90AA1 (Hsp90α1) (Homo sapiens, UniProt P07900); test: Two-dimensional thermal proteome profiling (CETSA) in crude cell extract; conditions: isocotoin 0.5-30 μM, 37-66.3 °C
Sar55/Gluc (genotype 1) = test: Dose titration against Sar55/Gluc replicon
HSPA14 = molecular target: T1, HSPA14 (Homo sapiens, UniProt Q0VDF9); test: Two-dimensional thermal proteome profiling (CETSA) in crude cell extract; conditions: isocotoin 0.5-30 μM, 37-66.3 °C
T1 sequence (Q0VDF9 1-509): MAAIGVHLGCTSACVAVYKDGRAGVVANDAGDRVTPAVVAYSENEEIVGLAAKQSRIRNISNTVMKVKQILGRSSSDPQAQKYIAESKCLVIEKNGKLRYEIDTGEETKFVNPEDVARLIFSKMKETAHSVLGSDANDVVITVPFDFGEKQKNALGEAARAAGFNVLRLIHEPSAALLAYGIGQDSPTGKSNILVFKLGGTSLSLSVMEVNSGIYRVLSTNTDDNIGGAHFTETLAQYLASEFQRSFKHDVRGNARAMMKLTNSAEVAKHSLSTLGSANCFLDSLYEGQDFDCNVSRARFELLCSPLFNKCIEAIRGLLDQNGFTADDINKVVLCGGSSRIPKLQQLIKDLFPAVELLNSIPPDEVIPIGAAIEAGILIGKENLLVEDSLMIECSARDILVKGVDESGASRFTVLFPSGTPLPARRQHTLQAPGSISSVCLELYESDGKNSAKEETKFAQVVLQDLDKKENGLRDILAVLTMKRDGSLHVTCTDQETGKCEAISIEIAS

STOML2 = molecular target: T2, STOML2 (Homo sapiens, UniProt Q9UJZ1); test: as above; conditions: isocotoin 0.5-30 μM, 37-66.3 °C
T2 sequence (Q9UJZ1 29-356): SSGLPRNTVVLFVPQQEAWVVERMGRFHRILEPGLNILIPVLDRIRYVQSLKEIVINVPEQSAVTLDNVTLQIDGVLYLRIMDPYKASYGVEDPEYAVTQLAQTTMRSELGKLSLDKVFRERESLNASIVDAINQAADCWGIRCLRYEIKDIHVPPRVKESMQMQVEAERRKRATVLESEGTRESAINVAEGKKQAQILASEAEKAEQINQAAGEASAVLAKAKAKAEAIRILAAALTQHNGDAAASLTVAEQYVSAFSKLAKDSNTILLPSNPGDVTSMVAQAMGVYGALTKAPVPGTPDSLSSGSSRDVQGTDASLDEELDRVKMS

[3] = system: SHEV-3/Gluc (genotype 3, swine-derived); test: Dose titration against SHEV-3/Gluc replicon; conditions: genotype 3, poor replicative capacity
p6/Gluc[F470S] = test: Dose titration against mutant replicon p6/Gluc[F470S]
p6/Gluc[G1634R] = test: Dose titration against mutant replicon p6/Gluc[G1634R]
HSP90AB1 (Hsp90β) = HSP90AB1 (Hsp90β) (Homo sapiens, UniProt P08238); test: Two-dimensional thermal proteome profiling (CETSA) in crude cell extract; conditions: isocotoin 0.5-30 μM, 37-66.3 °C
HSP90AB1 (Hsp90β), sequence (P08238 whole entry): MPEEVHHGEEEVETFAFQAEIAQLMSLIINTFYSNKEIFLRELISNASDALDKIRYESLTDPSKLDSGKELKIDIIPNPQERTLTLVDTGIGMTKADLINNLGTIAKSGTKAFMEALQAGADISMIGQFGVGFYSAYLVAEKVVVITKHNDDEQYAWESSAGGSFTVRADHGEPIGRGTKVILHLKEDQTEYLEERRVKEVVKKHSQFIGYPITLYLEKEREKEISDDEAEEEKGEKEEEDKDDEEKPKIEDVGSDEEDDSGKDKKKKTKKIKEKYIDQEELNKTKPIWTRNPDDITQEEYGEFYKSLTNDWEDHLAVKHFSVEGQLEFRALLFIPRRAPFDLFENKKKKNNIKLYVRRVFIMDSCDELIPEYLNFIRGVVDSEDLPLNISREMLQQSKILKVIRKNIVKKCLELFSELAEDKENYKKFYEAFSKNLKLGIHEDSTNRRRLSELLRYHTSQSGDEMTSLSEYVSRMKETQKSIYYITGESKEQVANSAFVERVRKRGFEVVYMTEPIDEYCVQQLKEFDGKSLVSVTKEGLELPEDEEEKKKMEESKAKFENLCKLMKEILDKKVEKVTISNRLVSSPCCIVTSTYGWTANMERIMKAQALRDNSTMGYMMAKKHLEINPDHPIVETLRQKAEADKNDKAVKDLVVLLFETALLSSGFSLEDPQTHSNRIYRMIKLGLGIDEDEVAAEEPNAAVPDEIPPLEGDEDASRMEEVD

## COc1cc(O)cc(O)c1C(=O)c1ccccc1 [isocotoin, 4-benzoyl-5-methoxybenzene-1,3-diol]
[1]
  effect on translation / Gluc levels, in words: did not lead to a significant decrease in Gluc levels; also recorded: do not inhibit translation
full-length KernowC1p6
  inhibition of full-length KernowC1p6 replication, in words: dose-dependent manner; also recorded: inhibits replication
Jc1(p7nsGluc2A) (HCV)
  inhibition of HCV replication, in words: dose-dependent inhibitory effects; also recorded: to a greater extent than ribavirin
HEV
  viral RNA levels in stool and serum pre- and post-treatment: not a clear decrease in viral levels; also recorded: did not result in a reduction in viral titers
[2]; Hepatitis E virus, Huh-7, 96 h
  IC50: 6.1 µM
[2]; Huh7 cells, supernatant Gluc
  inhibition of p6/Gluc (HEV) replication, in words: lower IC50 than ribavirin; also recorded: dose-dependent inhibitory effects; also recorded: dose-dependent inhibition; also recorded: more efficiently than ribavirin; also recorded: inhibits replication; also recorded: to a greater extent than ribavirin
HSP90AA1 (Hsp90α1)
  thermal stabilization / soluble protein fraction of HSP90AA1: thermal stabilization; also recorded: among hits showing the greatest increase in soluble protein fraction
Sar55/Gluc (genotype 1)
  inhibition of Sar55/Gluc replication, in words: lower IC50 than ribavirin; also recorded: inhibits replication
HSPA14
  thermal shift of HSPA14: did not produce a thermal shift
STOML2
  soluble protein fraction of STOML2: among hits showing the greatest increase in soluble protein fraction
[3]
  inhibition of SHEV-3/Gluc replication, in words: modest inhibitory effect; also recorded: inhibits replication
p6/Gluc[F470S]
  sensitivity of p6/Gluc[F470S], in words: higher sensitivity to isocotoin than to ribavirin
p6/Gluc[G1634R]
  sensitivity of p6/Gluc[G1634R], in words: higher sensitivity to isocotoin than to ribavirin
HSP90AB1 (Hsp90β)
  thermal stabilization / soluble protein fraction of HSP90AB1: thermal stabilization; also recorded: relatively modest, but identifiable increase
